{"source": "ChEMBL document CHEMBL1157287", "about": "“Steroidal saponins from the rhizomes of Polygonatum sibiricum” (J Nat Prod, 2006)", "system": "MCF7", "assay": "Cytotoxicity against human MCF7 cells by MTT assay", "type": "functional, cell-based"}
{"molecule": "CC(=O)O[C@@H]1C[C@H](O[C@@H]2O[C@H](C)[C@H](O[C@@H]3O[C@H](CO)[C@@H](O)[C@H](O)[C@H]3O[C@@H]3O[C@H](CO)[C@@H](O)[C@H](O)[C@H]3O)[C@H](O)[C@H]2O)CC2=CC[C@H]3[C@@H]4C[C@@H]5O[C@@]6(OC[C@@H](C)[C@@H](O)[C@@H]6O)[C@@H](C)[C@@H]5[C@@]4(C)CC[C@@H]3[C@]21C", "values": [{"measurement": "IC50", "value": "> 100", "unit": "µM"}]}
{"molecule": "CC1CC[C@@]2(OC1)O[C@H]1C[C@H]3[C@@H]4CC=C5C[C@@H](O[C@@H]6O[C@H](CO)[C@H](O[C@@H]7O[C@H](CO)[C@@H](O)[C@H](O)[C@H]7O[C@@H]7O[C@H](CO)[C@@H](O)[C@H](O)[C@H]7O)[C@H](O)[C@H]6O)CC[C@]5(C)[C@H]4CC[C@]3(C)[C@H]1[C@@H]2C", "note": "(mixture of isomers)", "values": [{"measurement": "IC50", "value": 24.3, "unit": "µM"}]}
